Assays:
[1] = tested on: cTnT^R141W transgenic dilated cardiomyopathy mice model; test: Survival analysis of cTnT^R141W transgenic mice after long-term administration; assay type: in vivo; settings: 75 mg/kg in drinking water for seven months
Description: (§1) The positive mice at 1.5 months old are distributed by weight and cardiac function uniformly into the model group and the ginsenoside Rb1 administration group according to the echocardiography result, and each group comprises twelve mice. Ginsenoside Rb1, 75 mg/kg (State Yao zhun Zi, Yun Nan Tean Na Pharmaceutical Co., Ltd) is put into animal drinking water, and continuously administered for seven months.
Individual death occurs in the feeding process of the cTnT^R141W transgenic mice model. From the beginning of administration to the observation endpoint, the death of animal of each group is recorded. The death of animal of the negative control group is zero, and the model group is four, and the ginsenoside Rb1 group is two.

[2] = tested on: cTnT^R141W transgenic dilated cardiomyopathy mice model; test: M-mode echocardiography, cardiac function and morphous, once a month; assay type: in vivo; set-up: CO (Cardiac Output) / LVAW; d (left ventricular anterior wall thickness, end of diastole) / LV Mass (AW) (weight of the left ventricular) / Diameter; d (inner diameter of the left ventricular, end of diastole) / Volume; d (volume of the left ventricular, end of diastole) / SV (Stroke Volume): unit not given here; settings: 75 mg/kg in drinking water
Description: as §1
Echocardiography detection is performed once a month. Mice were anesthetized with tribromoethanol, scanned by small animal ultrasonic apparatus (Vevo 770 small animal ultrasonic detection system, Canada), with 30 MHz probe, M-mode echocardiography were analyzed: Body weight (BW), LVPW, d (the thickness of the left ventricular posterior wall at the end of the diastole), LVPW, s (the thickness of the left ventricular posterior wall at the end of the systole), LVAW, d (the thickness of the left ventricular anterior wall at the end of the diastole), LVAW, s (the thickness of the left ventricular anterior wall at the end of the systole), LV Mass (the weight of the left ventricular), Diameter, s (the inner diameter of the left ventricular at the end of the systole), Diameter, d (the inner diameter of the left ventricular at the end of the diastole), Volume, s (the volume of the left ventricular at the end of the systole), Volume, d (the volume of the left ventricular at the end of the diastole), SV (Stroke Volume), EF (Ejection Fraction), FS (Fractional Shortening) and CO (Cardiac Output).

SMILES: CC(C)=CCC[C@](C)(O[C@@H]1O[C@H](CO[C@@H]2O[C@H](CO)[C@@H](O)[C@H](O)[C@H]2O)[C@@H](O)[C@H](O)[C@H]1O)[C@H]1CC[C@]2(C)[C@@H]1[C@H](O)C[C@@H]1[C@@]3(C)CC[C@H](O[C@@H]4O[C@H](CO)[C@@H](O)[C@H](O)[C@H]4O[C@@H]4O[C@H](CO)[C@@H](O)[C@H](O)[C@H]4O)C(C)(C)[C@@H]3CC[C@]12C [Rb1, ginsenoside Rb1]
- mortality rate (survival analysis, FIG. 2) ([1]; vs model group): reduce the mortality rate
- death of animal of the group (number) ([1]; group of twelve mice, model group four, negative control zero): two
- CO (Cardiac Output) ([2]; 0 month of administration): 19.59 ± 2.99
- Diameter; d (inner diameter of the left ventricular, end of diastole) ([2]; 0 month of administration): 4.02 ± 0.32
- Diameter; s (inner diameter of the left ventricular, end of systole) ([2]; 0 month of administration): 2.84 ± 0.41
- EF (Ejection Fraction) ([2]; 0 month of administration): 57.05 ± 7.87
- FS (Fractional Shortening) ([2]; 0 month of administration): 29.77 ± 5.07
- LV Mass (AW) (weight of the left ventricular) ([2]; 0 month of administration): 92.06 ± 17.12
- LVAW; d (left ventricular anterior wall thickness, end of diastole) ([2]; 0 month of administration): 0.67 ± 0.06
- LVAW; s (left ventricular anterior wall thickness, end of systole) ([2]; 0 month of administration): 0.99 ± 0.12
- LVPW; d (left ventricular posterior wall thickness, end of diastole) ([2]; 0 month of administration): 0.67 ± 0.07
- LVPW; s (left ventricular posterior wall thickness, end of systole) ([2]; 0 month of administration): 0.85 ± 0.06
- SV (Stroke Volume) ([2]; 0 month of administration): 40.00 ± 4.42
- Volume; d (volume of the left ventricular, end of diastole) ([2]; 0 month of administration): 71.50 ± 13.77
- Volume; s (volume of the left ventricular, end of systole) ([2]; 0 month of administration): 31.51 ± 11.53
- CO (Cardiac Output) ([2]; 1 month of administration): 22.14 ± 2.64
- Diameter; d (inner diameter of the left ventricular, end of diastole) ([2]; 1 month of administration): 4.33 ± 0.38
- Diameter; s (inner diameter of the left ventricular, end of systole) ([2]; 1 month of administration): 3.01 ± 0.46
- EF (Ejection Fraction) ([2]; 1 month of administration): 58.32 ± 7.31
- FS (Fractional Shortening) ([2]; 1 month of administration): 30.78 ± 4.73
- LV Mass (AW) (weight of the left ventricular) ([2]; 1 month of administration): 120.38 ± 13.83
- LVAW; d (left ventricular anterior wall thickness, end of diastole) ([2]; 1 month of administration): 0.84 ± 0.12
- LVAW; s (left ventricular anterior wall thickness, end of systole) ([2]; 1 month of administration): 1.21 ± 0.13
- LVPW; d (left ventricular posterior wall thickness, end of diastole) ([2]; 1 month of administration): 0.67 ± 0.06
- LVPW; s (left ventricular posterior wall thickness, end of systole) ([2]; 1 month of administration): 0.95 ± 0.11
- SV (Stroke Volume) ([2]; 1 month of administration): 48.69 ± 5.08
- Volume; d (volume of the left ventricular, end of diastole) ([2]; 1 month of administration): 85.37 ± 17.55
- Volume; s (volume of the left ventricular, end of systole) ([2]; 1 month of administration): 36.68 ± 13.77
- CO (Cardiac Output) ([2]; 2 month of administration): 21.89 ± 1.78
- Diameter; d (inner diameter of the left ventricular, end of diastole) ([2]; 2 month of administration): 4.31 ± 0.27
- Diameter; s (inner diameter of the left ventricular, end of systole) ([2]; 2 month of administration): 3.15 ± 0.39
- EF (Ejection Fraction) ([2]; 2 month of administration): 52.93 ± 7.59
- FS (Fractional Shortening) ([2]; 2 month of administration): 27.23 ± 5.02
- LV Mass (AW) (weight of the left ventricular) ([2]; 2 month of administration): 111.52 ± 7.92
- LVAW; d (left ventricular anterior wall thickness, end of diastole) ([2]; 2 month of administration): 0.78 ± 0.05
- LVAW; s (left ventricular anterior wall thickness, end of systole) ([2]; 2 month of administration): 1.13 ± 0.14
- LVPW; d (left ventricular posterior wall thickness, end of diastole) ([2]; 2 month of administration): 0.69 ± 0.08
- LVPW; s (left ventricular posterior wall thickness, end of systole) ([2]; 2 month of administration): 0.88 ± 0.12
- SV (Stroke Volume) ([2]; 2 month of administration): 43.68 ± 2.20
- Volume; d (volume of the left ventricular, end of diastole) ([2]; 2 month of administration): 83.96 ± 12.12
- Volume; s (volume of the left ventricular, end of systole) ([2]; 2 month of administration): 40.29 ± 11.15
- CO (Cardiac Output) ([2]; 3 month of administration): 22.72 ± 3.18
- Diameter; d (inner diameter of the left ventricular, end of diastole) ([2]; 3 month of administration): 4.61 ± 0.35
- Diameter; s (inner diameter of the left ventricular, end of systole) ([2]; 3 month of administration): 3.47 ± 0.48
- EF (Ejection Fraction) ([2]; 3 month of administration): 48.85 ± 9.39
- FS (Fractional Shortening) ([2]; 3 month of administration): 24.88 ± 5.88
- LV Mass (AW) (weight of the left ventricular) ([2]; 3 month of administration): 124.88 ± 20.30
- LVAW; d (left ventricular anterior wall thickness, end of diastole) ([2]; 3 month of administration): 0.75 ± 0.08
- LVAW; s (left ventricular anterior wall thickness, end of systole) ([2]; 3 month of administration): 0.98 ± 0.09
- LVPW; d (left ventricular posterior wall thickness, end of diastole) ([2]; 3 month of administration): 0.71 ± 0.06
- LVPW; s (left ventricular posterior wall thickness, end of systole) ([2]; 3 month of administration): 0.88 ± 0.11
- SV (Stroke Volume) ([2]; 3 month of administration): 46.95 ± 6.12
- Volume; d (volume of the left ventricular, end of diastole) ([2]; 3 month of administration): 98.37 ± 16.57
- Volume; s (volume of the left ventricular, end of systole) ([2]; 3 month of administration): 51.42 ± 15.53
- CO (Cardiac Output) ([2]; 4 month of administration): 24.42 ± 1.52

Reference: patent US20110039793A1, “Application of ginsenoside Rb1 in preparing medicaments for treating dilated cardiomyopathy” (priority 2008, published 2011)
